Tested on: adult zebrafish
Assay: Paclitaxel-induced peripheral neuropathy in adult zebrafish (number of stimuli until twitch)
Type: in vivo
Details: 3 μL of 10-μM paclitaxel solution for four consecutive days, FIG. 9
Experimental: Method to evaluate potential of compounds of Formula 1 to reduce or block chemotherapy-induced peripheral neuropathy—Animal (zebrafish) model described below and in literature (Lisse T S et al PNAS 113 (15) E2189-E2198) was used to evaluate potential of compounds of Formula 1 to reduce or block neuronal damage induced by chemotherapeutics.
To induce peripheral neuropathy in adult zebrafish, 3 μL of a 10-μM paclitaxel solution in 0.15% DMSO was administered with a 33 gauge Hamilton Syringe for a zebrafish with average ˜200 mg body weight. Fish were treated with vehicle alone or paclitaxel for four consecutive days (Days 2-5) or paclitaxel with Compound A (10- or 30 ng). Compound A was dosed orally by mixing with the fish feed pellets. Fishes were conditioned to consume three pellets a day. […] To prepare test compound infused pellet, a known quantity of the compound was mixed with the known quantity of the feed powder and were extruded in to 4 mg pellet containing the desired administration dose per pellet. Concentration of test compound dosed per fish were controlled by the number of pellets and the quantity of compound per pellet. […]
To determine the peripheral nerve damage, fish were wrapped in plastic foil until calm, and the distal tail fin was stimulated with an insect pin until twitching of the fish was observed. Number of stimuli until twitch was recorded.

CC(=O)O[C@H]1C(=O)[C@@]2(C)[C@H]([C@H](OC(=O)c3ccccc3)[C@]3(O)C[C@H](OC(=O)[C@H](O)[C@@H](NC(=O)c4ccccc4)c4ccccc4)C(C)=C1C3(C)C)[C@]1(OC(C)=O)CO[C@@H]1C[C@@H]2O [paclitaxel]
peripheral nerve damage (increase in number of stimuli needed) compared to vehicle alone: significant nerve damage
